Assay results: patent publication US4012576A, “Antibiotic complex Bu 2183” (priority 1975, dated 1977)
Converted amounts (≈) assume the structure as drawn. “Also recorded” adds a separate entry of the source. Read-outs that look alike come from different tables or passages of the source.

Tests used:
[1] = test system: Gram-positive and Gram-negative bacteria; assay: In vitro antibacterial activity (general); format: cell-based
Description: (§1) The minimum inhibitory concentrations (MIC) of Bu-2183 A and B were determined against a wide variety of bacteria by the two-fold agar dilution method on Nutrient Agar plates. The inocula-replicating device of Steers et al. was used. Inoculum size was adjusted to be 10^4 dilution of overnight culture of the test organisms in Heart Infusion Broth (Difco). The results are shown in Table 6 along with those of kanamycin which was comparatively tested as a reference antibiotic.

E. coli NR 79/W677 = assay: MIC, two-fold agar dilution on Nutrient Agar; format: cell-based; conditions: Escherichia coli
Description: as §1

E. coli A20895 = assay: MIC, two-fold agar dilution on Nutrient Agar; format: cell-based; conditions: Escherichia coli
Description: as §1

E. coli NIHJ = assay: MIC, two-fold agar dilution on Nutrient Agar; format: cell-based; conditions: Escherichia coli
Description: as §1

Ent. cloacae A20364 = assay: MIC, two-fold agar dilution on Nutrient Agar; format: cell-based; conditions: Enterobacter cloacae, A20364
Description: as §1

S. aureus A20239 = assay: MIC, two-fold agar dilution on Nutrient Agar; format: cell-based; conditions: Staphylococcus aureus
Description: as §1

S. aureus D193 = assay: MIC, two-fold agar dilution on Nutrient Agar; format: cell-based; conditions: Staphylococcus aureus, D193
Description: as §1

[2] = test system: K. pneumoniae Type 22-3038; assay: MIC, two-fold agar dilution on Nutrient Agar; format: cell-based; conditions: Klebsiella pneumoniae, TYPE223038
Description: as §1

Ent. cloacae A21006 = assay: MIC, two-fold agar dilution on Nutrient Agar; format: cell-based; conditions: Enterobacter cloacae, A21006
Description: as §1

Prov. stuartii A20894 = assay: MIC, two-fold agar dilution on Nutrient Agar; format: cell-based; conditions: Providencia stuartii, A20894
Description: as §1

E. coli JR 66/W677 = assay: MIC, two-fold agar dilution on Nutrient Agar; format: cell-based; conditions: Escherichia coli
Description: as §1

K. pneumoniae D11 = assay: MIC, two-fold agar dilution on Nutrient Agar; format: cell-based; conditions: Klebsiella pneumoniae
Description: as §1

E. coli R 5 = assay: MIC, two-fold agar dilution on Nutrient Agar; format: cell-based; conditions: Escherichia coli
Description: as §1

E. coli PO 1495 = assay: MIC, two-fold agar dilution on Nutrient Agar; format: cell-based; conditions: Escherichia coli, PO1495, read-out: MIC
Description: as §1

E. coli JR 35/C600 = assay: MIC, two-fold agar dilution on Nutrient Agar; format: cell-based; conditions: Escherichia coli, JR35/C600
Description: as §1

Pr. vulgaris A9436 = assay: MIC, two-fold agar dilution on Nutrient Agar; format: cell-based; conditions: Proteus vulgaris
Description: as §1

S. aureus Smith = assay: MIC, two-fold agar dilution on Nutrient Agar; format: cell-based; conditions: Staphylococcus aureus
Description: as §1

Ps. aeruginosa A20653 = assay: MIC, two-fold agar dilution on Nutrient Agar; format: cell-based; conditions: Pseudomonas aeruginosa
Description: as §1

Ps. aeruginosa A9930 = assay: MIC, two-fold agar dilution on Nutrient Agar; format: cell-based; conditions: Pseudomonas aeruginosa, A9930
Description: as §1

Pseudomonas sp. A20621 = assay: MIC, two-fold agar dilution on Nutrient Agar; format: cell-based; conditions: Pseudomonas, SP.A20621
Description: as §1

Pr. mirabilis A9554 = assay: MIC, two-fold agar dilution on Nutrient Agar; format: cell-based; conditions: Proteus mirabilis
Description: as §1

S. aureus D137 = assay: MIC, two-fold agar dilution on Nutrient Agar; format: cell-based; conditions: Staphylococcus aureus
Description: as §1

Pr. morganii A20031 = assay: MIC, two-fold agar dilution on Nutrient Agar; format: cell-based; conditions: Morganella morganii, A20031
Description: as §1

Ps. aeruginosa No. 130 = assay: MIC, two-fold agar dilution on Nutrient Agar; format: cell-based; conditions: Pseudomonas aeruginosa, NO.130
Description: as §1

E. coli ML 1630 = assay: MIC, two-fold agar dilution on Nutrient Agar; format: cell-based; conditions: Escherichia coli
Description: as §1

Ser. marcescens A20019 = assay: MIC, two-fold agar dilution on Nutrient Agar; format: cell-based; conditions: Serratia marcescens, A20019
Description: as §1

Ps. aeruginosa A20601 = assay: MIC, two-fold agar dilution on Nutrient Agar; format: cell-based; conditions: Pseudomonas aeruginosa
Description: as §1

Ps. aeruginosa A20896 = assay: MIC, two-fold agar dilution on Nutrient Agar; format: cell-based; conditions: Pseudomonas aeruginosa
Description: as §1

E. coli A20732 = assay: MIC, two-fold agar dilution on Nutrient Agar; format: cell-based; conditions: Escherichia coli, A20732
Description: as §1

Ps. aeruginosa GN 315 = assay: MIC, two-fold agar dilution on Nutrient Agar; format: cell-based; conditions: Pseudomonas aeruginosa, GN315
Description: as §1

Ser. marcescens A21247 = assay: MIC, two-fold agar dilution on Nutrient Agar; format: cell-based; conditions: Serratia marcescens
Description: as §1

S. aureus D133 = assay: MIC, two-fold agar dilution on Nutrient Agar; format: cell-based; conditions: Staphylococcus aureus
Description: as §1

E. coli A20107 = assay: MIC, two-fold agar dilution on Nutrient Agar; format: cell-based; conditions: Escherichia coli
Description: as §1

Solubility = format: physicochemical; conditions: base
Titration in water = format: physicochemical

With `CCCC(=O)NC1C(CO)OC(OC(C(O)CN)C(N)C(O)CO)C(O)C1O` (stereo not drawn) [Bu-2183 A2] the bio-activity [1] was “bio-active”, the “activity of Bu-2183 A2 relative to Bu-2183 A and B” value ([1]; in vitro) was “more active than Bu-2183 B but less active than Bu-2183 A” and the antibacterial spectrum ([1]; in vitro) was “broad spectrum of antibacterial activity”. The MIC (E. coli NR 79/W677; NR79/W677, Table 7, Ec-9) was 25 µg/mL (≈ 60.8 µM), the MIC (E. coli A20895; A20895, Table 7, Ec-62, read-out: MIC) was 50 µg/mL (≈ 122 µM) and the MIC (E. coli NIHJ; Table 7, Ec-1, read-out: MIC) was 100 µg/mL (≈ 243 µM). The MIC (Ent. cloacae A20364; Table 7, El-2, read-out: MIC) was 100 µg/mL (≈ 243 µM), the MIC (S. aureus A20239; A20239, Table 7, Sa-10, read-out: MIC) was 100 µg/mL (≈ 243 µM) and the MIC (S. aureus D193; Table 7, Sa-3, read-out: MIC) was 50 µg/mL (≈ 122 µM). It also gave an MIC ([2]; Table 7, Kp-8 (printed Type 22-3028), read-out: MIC) of 100 µg/mL (≈ 243 µM), an MIC (Ent. cloacae A21006; Table 7, El-12, read-out: MIC) of 100 µg/mL (≈ 243 µM) and an MIC (Prov. stuartii A20894; Table 7, Ps-2, read-out: MIC) of over 100 µg/mL. It also gave an MIC (E. coli JR 66/W677; JR66/W677, Table 7, Ec-53) of 25 µg/mL (≈ 60.8 µM), an MIC (K. pneumoniae D11; D11, Table 7, Kp-1, read-out: MIC) of 12.5 µg/mL (≈ 30.4 µM) and an MIC (E. coli R 5; R5, Table 7, Ec-55) of 25 µg/mL (≈ 60.8 µM). It also gave an MIC (E. coli PO 1495; Table 7, Ec-2) of over 100 µg/mL, an MIC (E. coli JR 35/C600) of 6.3 µg/mL (≈ 15.3 µM) and an MIC (Pr. vulgaris A9436; A9436, Table 7, Pv-1, read-out: MIC) of 100 µg/mL (≈ 243 µM). For the same compound, the MIC (S. aureus Smith; Table 7, Sa-2, read-out: MIC) was 25 µg/mL (≈ 60.8 µM), the MIC (Ps. aeruginosa A20653; A20653, Table 7, Pa-12, read-out: MIC) was over 100 µg/mL and the MIC (Ps. aeruginosa A9930; Table 7, Pa-3, read-out: MIC) was 50 µg/mL (≈ 122 µM). The MIC (Pseudomonas sp. A20621; Table 7, Px-10, read-out: MIC) was over 100 µg/mL, the MIC (Pr. mirabilis A9554; A9554, Table 7, Pm-1, read-out: MIC) was 50 µg/mL (≈ 122 µM) and the MIC (S. aureus D137; D137, Table 7, Sa-9, read-out: MIC) was 100 µg/mL (≈ 243 µM). It also gave an MIC (Pr. morganii A20031; Table 7, Pg-2, read-out: MIC) of 50 µg/mL (≈ 122 µM), an MIC (Ps. aeruginosa No. 130; Table 7, Pa-16, read-out: MIC) of 100 µg/mL (≈ 243 µM) and an MIC (E. coli ML 1630; ML1630, Table 7, Ec-5, read-out: MIC) of 50 µg/mL (≈ 122 µM). It also gave an MIC (Ser. marcescens A20019; Table 7, Sm-1, read-out: MIC) of over 100 µg/mL, an MIC (Ps. aeruginosa A20601; A20601, Table 7, Pa-21, read-out: MIC) of over 100 µg/mL and an MIC (Ps. aeruginosa A20896; A20896, Table 7, Pa-24, read-out: MIC) of over 100 µg/mL. For the same compound, the MIC (E. coli A20732; Table 7, Ec-72, read-out: MIC) was 25 µg/mL (≈ 60.8 µM), the MIC (Ps. aeruginosa GN 315; Table 7, Pa-27, read-out: MIC) was 100 µg/mL (≈ 243 µM) and the MIC (Ser. marcescens A21247; A21247, Table 7, Sm-16, read-out: MIC) was over 100 µg/mL. For the same compound, the MIC (S. aureus D133; D133, Table 7, Sa-4, read-out: MIC) was 100 µg/mL (≈ 243 µM), the MIC (E. coli A20107; A20107, Table 7, Ec-49, read-out: MIC) was 50 µg/mL (≈ 122 µM) and the “solubility in methanol and ethanol” value (Solubility) was “slightly soluble”. For the same compound, the “solubility in n-butanol, acetone and other common organic solvents” value (Solubility) was “practically insoluble” and the solubility in water (Solubility) was “soluble”.

In the case of `NC[C@H](O)[C@@H](O[C@H]1O[C@H](CO)[C@@H](O)[C@H](O)[C@H]1O)[C@H](N)[C@H](O)CO` [Bu-2183 C], the bio-activity [1] is reported as “bio-inactive; also recorded: bioinactive”.

With `NC[C@H](O)[C@@H](O[C@H]1O[C@H](CO)[C@@H](N)[C@H](O)[C@H]1O)[C@H](N)[C@H](O)CO` [Bu-2183 D] the bio-activity [1] was “bio-inactive”, the bio-activity ([1]; listed as D) was “bio-inactive; also recorded: bioinactive” and the pKa (Titration in water; read-out: pKa' (first value)) was 6.95. The pKa (Titration in water; read-out: pKa' (second value)) was 9.68, the “solubility in methanol and ethanol” value (Solubility) was “slightly soluble” and the “solubility in n-butanol, acetone and other common organic solvents” value (Solubility) was “practically insoluble”. For the same compound, the solubility in water (Solubility) was “soluble”.

For `NC[C@H]1O[C@H](O[C@H]2[C@H](O)[C@@H](O[C@H]3O[C@H](CO)[C@@H](O)[C@H](N)[C@H]3O)[C@H](N)C[C@@H]2N)[C@H](O)[C@@H](O)[C@@H]1O` [Kanamycin A, reference compound], the MIC (E. coli NR 79/W677; NR79/W677, Table 6, Ec-9) was 25 µg/mL (≈ 51.6 µM), the MIC (E. coli A20895; A20895) was 0.8 µg/mL (≈ 1.65 µM) and the MIC (E. coli NIHJ) was 0.8 µg/mL (≈ 1.65 µM). For the same compound, the MIC (Ent. cloacae A20364) was 100 µg/mL (≈ 206 µM), the MIC (S. aureus A20239; A20239) was 25 µg/mL (≈ 51.6 µM) and the MIC (S. aureus D193) was 0.4 µg/mL (≈ 0.826 µM). The MIC [2] was 100 µg/mL (≈ 206 µM), the MIC (Ent. cloacae A21006) was 50 µg/mL (≈ 103 µM) and the MIC (Prov. stuartii A20894) was 0.8 µg/mL (≈ 1.65 µM). The MIC (E. coli JR 66/W677; JR66/W677, Table 6, Ec-53) was 25 µg/mL (≈ 51.6 µM), the MIC (K. pneumoniae D11; D11) was 0.2 µg/mL (≈ 0.413 µM) and the MIC (E. coli R 5; R5, Table 6, Ec-55) was 6.3 µg/mL (≈ 13 µM). For the same compound, the MIC (E. coli PO 1495; Table 6, Ec-2) was 0.4 µg/mL (≈ 0.826 µM), the MIC (E. coli JR 35/C600) was 12.5 µg/mL (≈ 25.8 µM) and the MIC (Pr. vulgaris A9436; A9436) was 0.2 µg/mL (≈ 0.413 µM). For the same compound, the MIC (S. aureus Smith) was 0.2 µg/mL (≈ 0.413 µM), the MIC (Ps. aeruginosa A20653; A20653) was over 100 µg/mL and the MIC (Ps. aeruginosa A9930) was 6.3 µg/mL (≈ 13 µM). For the same compound, the MIC (Pseudomonas sp. A20621) was 12.5 µg/mL (≈ 25.8 µM), the MIC (Pr. mirabilis A9554; A9554) was 0.4 µg/mL (≈ 0.826 µM) and the MIC (S. aureus D137; D137) was 1.6 µg/mL (≈ 3.3 µM). It also gave an MIC (Pr. morganii A20031) of 0.8 µg/mL (≈ 1.65 µM), an MIC (Ps. aeruginosa No. 130) of 25 µg/mL (≈ 51.6 µM) and an MIC (E. coli ML 1630; ML1630) of 100 µg/mL (≈ 206 µM). For the same compound, the MIC (Ser. marcescens A20019) was 0.8 µg/mL (≈ 1.65 µM), the MIC (Ps. aeruginosa A20601; A20601) was 12.5 µg/mL (≈ 25.8 µM) and the MIC (Ps. aeruginosa A20896; A20896) was over 100 µg/mL. It also gave an MIC (E. coli A20732) of 12.5 µg/mL (≈ 25.8 µM), an MIC (Ps. aeruginosa GN 315) of 100 µg/mL (≈ 206 µM) and an MIC (Ser. marcescens A21247; A21247) of over 100 µg/mL. For the same compound, the MIC (S. aureus D133; D133) was 0.8 µg/mL (≈ 1.65 µM) and the MIC (E. coli A20107; A20107) was 25 µg/mL (≈ 51.6 µM).
